According to patent EP3325465B1, “PESTICIDALLY ACTIVE PYRAZOLE DERIVATIVES” (Syngenta Participations AG, priority 2015, dated 2017):
Like-named read-outs stand apart in the source and are kept apart here.

Key:
Assay type in all cases: in vivo
[1] = test system: Diabrotica balteata, (Corn root worm); assay: Diabrotica balteata maize sprout spray test, L2 larvae; settings: 96 h
Text: (§1) The pesticidal/insecticidal properties of the compounds according to embodiments 1 or 2 can be illustrated via the following tests: Spodoptera littoralis (Egyptian cotton leaf worm) • Cotton leaf discs were placed onto agar in 24-well microtiter plates and sprayed with aqueous test solutions prepared from 10'000 ppm DMSO stock solutions. After drying the leaf discs were infested with five L1 larvae. […] Plutella xylostella (Diamond back moth): 24-well microtiter plates with artificial diet were treated with aqueous test solutions prepared from 10'000 ppm DMSO stock solutions by pipetting. After drying, the plates were infested with L2 larvae (10 to 15 per well). The samples were assessed for mortality and growth inhibition in comparison to untreated samples 5 days after infestation. […] Diabrotica balteata, (Corn root worm) • Maize sprouts placed onto an agar layer in 24-well microtiter plates were treated with aqueous test solutions prepared from 10'000 ppm DMSO stock solutions by spraying. After drying, the plates were infested with L2 larvae (6 to 10 per well). […] Thrips tabaci (Onion thrips): Sunflower leaf discs were placed on agar in 24-well microtiter plates and sprayed with aqueous test solutions prepared from 10'000 ppm DMSO stock solutions. After drying the leaf discs were infested with a thrips population of mixed ages. The samples were assessed for mortality 6 days after infestation. […] Tetranychus urticae (Two-spotted spider mite): Bean leaf discs on agar in 24-well microtiter plates were sprayed with aqueous test solutions prepared from 10'000 ppm DMSO stock solutions. After drying the leaf discs were infested with a mite population of mixed ages. The samples were assessed for mortality on mixed population (mobile stages) 8 days after infestation. […] Euschistus heros (Neotropical Brown Stink Bug): • Two weeks old soybean plants were sprayed in a turn table spray chamber with the diluted spray solutions. After drying 2 soybean seeds were added and plants were infested with 10 N2 nymphs of the neotropical brown stink bug Euschistus heros in plastic test boxes. The samples were assessed for mortality in comparison to untreated samples 5 days after infestation. • The following compounds gave at least 80% mortality of Euschistus heros at an application rate of 12.5 ppm: Compounds 3 , 4 , 8 , 39 , 43 , 44 , 46 , 75 , 76 , 77 , 78 , 79 , 80 , 81 , 82 , 88 , 90 , 93 and 95 . Myzus persicae (Green peach aphid): Sunflower leaf discs were placed on agar in a 24-well microtiter plate and sprayed with test solutions at an application rate of 200 ppm. After drying, the leaf discs were infested with an aphid population of mixed ages. After an incubation period of 6 DAT, samples were checked for mortality. The following compounds gave at least 50% mortality of Myzus persicae: Compounds 3 , 4 , 8 , 43 , 44 , 75 , 76 , 77 , 80 , 81 , 90 and 92 . Myzus persicae (Green peach aphid): • Test compounds were applied by pipette into 24 well plates and mixed with Sucrose solution. Application rate: 12.5ppm. The plates were closed with a stretched parafilm. A plastic stencil with 24 holes is placed onto the plate and infested pea seedlings were placed directly on the Parafilm. The infested plate is closed with a gel blotting paper and another plastic stencil and then turned upside down. […]

[2] = test system: Plutella xylostella (Diamond back moth); assay: Plutella xylostella artificial diet test, L2 larvae; settings: 120 h, application rate of 200 ppm, mortality and growth inhibition 5 days after infestation
Text: as §1

[3] = test system: Spodoptera littoralis (Egyptian cotton leaf worm); assay: Spodoptera littoralis cotton leaf disc spray test, L1 larvae; settings: foliar, 72 h
Text: as §1

[4] = test system: Thrips tabaci (Onion thrips); assay: Thrips tabaci sunflower leaf disc spray test; settings: foliar, 144 h, application rate of 200 ppm, mortality 6 days after infestation, mixed ages
Text: as §1

[5] = test system: Tetranychus urticae (Two-spotted spider mite); assay: Tetranychus urticae bean leaf disc spray test; settings: foliar, 192 h, application rate of 200 ppm, mortality on mixed population (mobile stages) 8 days after infestation
Text: as §1

[6] = application rate of 200 ppm, 4 days after infestation, L2 larvae, read-out: mortality
[7] = application rate of 200 ppm, 3 days after infestation, L1 larvae, read-out: mortality

Cn1nc(C(F)(F)C(F)(F)F)c(C(F)(F)F)c1-c1noc(-c2ccc(Cl)c(C(=O)NC3CC3)c2)n1 [Compound 9, 2-chloro-N-cyclopropyl-5-[3-[2-methyl-5-(1,1 ,2,2,2-pentafluoroethyl)-4-(trifluoromethyl)pyrazol-3-yl]-1,2,4-oxadiazol-5-yl]benzamide]
≥ 80%: mortality at 200 ppm [1, 6]

Cn1nc(C(F)(F)C(F)(F)F)c(C(F)(F)F)c1-c1nc(-c2ccc(Cl)c(C(=O)NC3CC3)c2)no1 [Compound 21, 2-chloro-N-cyclopropyl-5-[5-[2-methyl-5-(1,1,2,2,2-pentafluoroethyl)-4-(trifluoromethyl)pyrazol-3-yl]-1,2,4-oxadiazol-3-yl]benzamide]
≥ 80%: pest or weed control at 200 ppm [2]

Cn1nc(C(F)(F)C(F)(F)F)c(C(F)(F)F)c1-c1ncn(-c2ccc(Cl)c(C(=O)NC3CC3)c2)n1 [Compound 35, 2-chloro-N-cyclopropyl-5-[3-[2-methyl-5-(1,1,2,2,2-pentafluoroethyl)-4-(trifluoromethyl)pyrazol-3-yl]-1,2,4-triazol-1-yl]benzamide]
≥ 80%: mortality at 200 ppm [3, 7] | pest or weed control at 200 ppm [2]

Cn1nc(-c2c(C(F)(F)F)c(C(F)(F)C(F)(F)F)nn2C)cc1-c1ccc(Cl)c(C(=O)NC2CC2)c1 [Compound 41, 2-chloro-N-cyclopropyl-5-[2-methyl-5-[2-methyl-5-(1,1,2,2,2-pentafluoroethyl)-4-(trifluoromethyl)pyrazol-3-yl]pyrazol-3-yl]benzamide]
≥ 80%: mortality at 200 ppm [3, 7] | pest or weed control at 200 ppm [2] | mortality at 200 ppm [1, 6] | pest or weed control at 200 ppm [4] | pest or weed control at 200 ppm [5]

Cn1nc(C(F)(F)C(F)(F)F)c(C(F)(F)F)c1-c1ncc(-c2ccc(Cl)c(C(=O)NC3CC3)c2)s1 [Compound 47, 2-chloro-N-cyclopropyl-5-[2-[2-methyl-5-(1,1 ,2,2,2-pentafluoroethyl)-4-(trifluoromethyl)pyrazol-3-yl]thiazol-5-yl]benzamide]
≥ 80%: mortality at 200 ppm [3, 7] | pest or weed control at 200 ppm [2] | mortality at 200 ppm [1, 6]

Cn1nc(C(F)(F)C(F)(F)F)c(C(F)(F)F)c1-c1ncc(-c2ccc(Cl)c(C(=O)NC3(C#N)CC3)c2)s1 [Compound 48, 2-chloro-N-(1-cyanocyclopropyl)-5-[2-[2-methyl-5-(1,1,2,2,2-pentafluoroethyl)-4-(trifluoromethyl)pyrazol-3-yl]thiazol-5-yl]benzamide]
≥ 80%: mortality at 200 ppm [3, 7] | pest or weed control at 200 ppm [2] | mortality at 200 ppm [1, 6] | pest or weed control at 200 ppm [4] | pest or weed control at 200 ppm [5]

Cn1nc(C(F)(F)C(F)(F)F)c(C(F)(F)F)c1-c1csc(-c2ccc(Cl)c(C(=O)NC3CC3)c2)n1 [Compound 49, 2-chloro-N-cyclopropyl-5-[4-[2-methyl-5-(1,1 ,2,2,2-pentafluoroethyl)-4-(trifluoromethyl)pyrazol-3-yl]thiazol-2-yl]benzamide]
≥ 80%: mortality at 200 ppm [3, 7] | pest or weed control at 200 ppm [2] | mortality at 200 ppm [1, 6]

Cn1nc(C(F)(F)C(F)(F)F)c(C(F)(F)F)c1-c1nc(-c2ccc(Cl)c(C(=O)NC3CC3)c2)cs1 [Compound 53, 2-chloro-N-cyclopropyl-5-[2-[2-methyl-5-(1,1 ,2,2,2-pentafluoroethyl)-4-(trifluoromethyl)pyrazol-3-yl]thiazol-4-yl]benzamide]
≥ 80%: pest or weed control at 200 ppm [2]

Cn1nc(C(F)(F)C(F)(F)F)c(C(F)(F)F)c1-c1nc(-c2ccc(Cl)c(C(=O)NC3(C#N)CC3)c2)cs1 [Compound 54, 2-chloro-N-(1-cyanocyclopropyl)-5-[2-[2-methyl-5-(1,1,2,2,2-pentafluoroethyl)-4-(trifluoromethyl)pyrazol-3-yl]thiazol-4-yl]benzamide]
≥ 80%: mortality at 200 ppm [3] | pest or weed control at 200 ppm [2] | mortality at 200 ppm [1] | pest or weed control at 200 ppm [4] | pest or weed control at 200 ppm [5]

Cn1nc(C(F)(F)C(F)(F)F)c(C(F)(F)F)c1-c1c[nH]c(-c2ccc(Cl)c(C(=O)NC3(C#N)CC3)c2)n1 [Compound 70, 2-chloro-N-(1-cyanocyclopropyl)-5-[4-[2-methyl-5-(1,1,2,2,2-pentafluoroethyl)-4-(trifluoromethyl)pyrazol-3-yl]-1H-imidazol-2-yl]benzamide]
≥ 80%: pest or weed control at 200 ppm [2]

Cn1nc(C(F)(F)C(F)(F)F)c(C(F)(F)F)c1-c1cc(-c2ccc(Cl)c(C(=O)NC3CC3)c2)[nH]n1 [Compound 73, 2-chloro-N-cyclopropyl-5-[3-[2-methyl-5-(1,1,2,2,2-pentafluoroethyl)-4-(trifluoromethyl)pyrazol-3-yl]-1H-pyrazol-5-yl]benzamide]
≥ 80%: mortality at 200 ppm [3, 7] | pest or weed control at 200 ppm [5]

Cn1nc(C(F)(F)C(F)(F)F)c(C(F)(F)F)c1-c1cc(-c2ccc(Cl)c(C(=O)NCCC(F)(F)F)c2)on1 [Compound 83, 2-chloro-5-[3-[2-methyl-5-(1,1,2,2,2-pentafluoroethyl)-4-(trifluoromethyl)pyrazol-3-yl]isoxazol-5-yl]-N-(3,3,3-trifluoropropyl)benzamide]
≥ 80%: mortality at 200 ppm [3, 7] | pest or weed control at 200 ppm [2] | mortality at 200 ppm [1, 6] | pest or weed control at 200 ppm [4]

Cn1nc(C(F)(F)C(F)(F)F)c(C(F)(F)F)c1-c1cc(-c2ccc(Cl)c(C(=O)NCC=C(Cl)Cl)c2)on1 [Compound 84, 2-chloro-N-(3,3-dichloroallyl)-5-[3-[2-methyl-5-(1,1,2,2,2-pentafluoroethyl)-4-(trifluoromethyl)pyrazol-3-yl]isoxazol-5-yl]benzamide]
≥ 80%: pest or weed control at 200 ppm [2] | mortality at 200 ppm [1, 6] | pest or weed control at 200 ppm [4] | pest or weed control at 200 ppm [5]

Cn1nc(C(F)(F)C(F)(F)F)c(C(F)(F)F)c1-c1cc(-c2ccc(Cl)c(C(=O)Nc3ccc(Cl)cc3)c2)on1 [Compound 85, 2-chloro-N-(4-chlorophenyl)-5-[3-[2-methyl-5-(1,1,2,2,2-pentafluoroethyl)-4-(trifluoromethyl)pyrazol-3-yl]isoxazol-5-yl]benzamide]
≥ 80%: pest or weed control at 200 ppm [5]

C=C(F)CNC(=O)c1cc(-c2cc(-c3c(C(F)(F)F)c(C(F)(F)C(F)(F)F)nn3C)no2)ccc1Cl [Compound 86, 2-ch loro-N-(2-fluoroallyl)-5-[3-[2-methyl-5-(1,1,2,2,2-pentafluoroethyl)-4-(trifluoromethyl)pyrazol-3-yl]isoxazol-5-yl]benzamide]
≥ 80%: mortality at 200 ppm [3, 7] | pest or weed control at 200 ppm [2] | mortality at 200 ppm [1, 6] | pest or weed control at 200 ppm [4] | pest or weed control at 200 ppm [5]

CC(C)CNC(=O)c1cc(-c2cc(-c3c(C(F)(F)F)c(C(F)(F)C(F)(F)F)nn3C)no2)ccc1Cl [Compound 87, 2-chloro-N-isobutyl-5-[3-[2-methyl-5-(1,1,2,2,2-pentafluoroethyl)-4-(trifluoromethyl)pyrazol-3-yl]isoxazol-5-yl]benzamide]
≥ 80%: mortality at 200 ppm [3, 7] | pest or weed control at 200 ppm [2] | mortality at 200 ppm [1, 6] | pest or weed control at 200 ppm [4] | pest or weed control at 200 ppm [5]

Cn1nc(C(F)(F)C(F)(F)F)c(C(F)(F)F)c1-c1cc(-c2ccc(Cl)c(C(=O)NCc3ccccc3)c2)on1 [Compound 91, N-benzyl-2-chloro-5-[3-[2-methyl-5-(1,1,2,2,2-pentafluoroethyl)-4-(trifluoromethyl)pyrazol-3-yl]isoxazol-5-yl]benzamide]
≥ 80%: pest or weed control at 200 ppm [2] | mortality at 200 ppm [1, 6] | pest or weed control at 200 ppm [4] | pest or weed control at 200 ppm [5]
